# Measurements published in publication PMC5903342 (Oxidative Medicine and Cellular Longevity, 2018).
# Columns and labels:
# [1] = system: Salmonella enterica serovar typhimurium TA102; experiment: Antimutagenicity assay (Salmonella/microsome), strain TA102; format: cell-based; details: TA102, cotreatment
# Description: (§1) Salmonella enterica serovar typhimurium (S. typhimurium) strains TA100, TA1535, TA104, and TA102 from the authors' laboratory stock were used as described by Maron and Ames in the antimutagenicity assay.
# (§2) We carried out the coexposure protocol of the antimutagenicity assay to investigate the potential of the compound to protect against alkylation-mediated genetic mutation in S. typhimurium TA100, TA102, TA104, and TA1535 strains according to Ajith and Soja. The test proceeded both in the absence and presence of a metabolic activation system (4% S9 mix, Aroclor preinduced, from MOLTOX Inc., USA). DMSO 1% served as the negative control. […] The mixtures were incubated in a shaker at 37°C (preincubation) under light protection. After a total of 60 min of cotreatment, the mixtures were added to and mixed with 2 mL top agar containing 0.05 mmol/L L-histidine and D-biotin for the S. typhimurium strains. Each of these was then spread on a minimal glucose agar (1.5% agar, Vogel-Bonner medium E, containing 2% glucose) plate. After the top agar solidified, the plates were incubated at 37°C for 60–72 h. Each tester strain was assayed in triplicate and repeated at least twice, and the number of revertant colonies was counted for each tester strain and treatment group. The counts of revertant colonies were obtained to build a dose-response curve and calculate the percentage of reduction.
# [2] = system: Salmonella enterica serovar typhimurium TA104; experiment: Antimutagenicity assay (Salmonella/microsome), strain TA104; format: cell-based; details: TA104, cotreatment
# Description: as §1, §2
# [3] = DPPH free radical scavenging assay; format: biochemical; details: absorbance at 517 nm
# Method: The free radical scavenging activity was measured by following microplate procedures as previously described. One hundred microliters of the sample dilutions with five concentration levels (varying from 0 to 2000 μM in DMSO) was added to two identical groups of wells in a 96-well microplate. The same volume of 0.1 mM DPPH-methanol solution was added to each well of one group (samples), and methanol ([…]) was added to the other group (blanks). The control was prepared by mixing the DPPH-methanol solution with the sample solvent or butylated hydroxytoluene (BHT). The solutions were mixed thoroughly, covered, and allowed to react in the dark at room temperature for 40 min. The absorbance was measured at 517 nm using a microplate reader (Quant, BioTek Instruments Inc.), and the scavenging activity was calculated from the absorbance values according to the following equation: […]. The antioxidant properties of the samples were expressed as half the maximal effective concentrations (EC50) obtained by interpolation from the linear regression analysis. BHT was used as the positive control.
# [4] = +S9, CPA (150 μM), atorvastatin 20 μM
# [5] = +S9, CPA (150 μM), atorvastatin 100 μM
# [6] = +S9, CPA (150 μM), atorvastatin 200 μM
# [7] = +S9, CPA (150 μM), atorvastatin 1000 μM
# [8] = +S9, CPA (150 μM), atorvastatin 1000 μM, listed as Atorvastatin
# [9] = −S9, MMS (100 μM), atorvastatin 20 μM
# [10] = −S9, MMS (100 μM), atorvastatin 100 μM
# [11] = −S9, MMS (100 μM), atorvastatin 200 μM
# [12] = −S9, MMS (100 μM), atorvastatin 200 μM, listed as Atorvastatin
# [13] = −S9, MMS (100 μM), atorvastatin 1000 μM
# [14] = −S9, MMS (100 μM), atorvastatin 1000 μM, listed as Atorvastatin
structure (smiles),measurement,setting,value
"CC(C)c1c(C(=O)Nc2ccccc2)c(-c2ccccc2)c(-c2ccc(F)cc2)n1CC[C@@H](O)C[C@@H](O)CC(=O)O [AVA, atorvastatin]",% reduction,[1]; [4],7.27%
same,His+ (revertant colonies),[1]; [4],566 ± 54
same,% reduction,[1]; [5],9.09%
same,His+ (revertant colonies),[1]; [5],560 ± 38
same,% reduction,[1]; [6],14.55%
same,His+ (revertant colonies),[1]; [6],543 ± 42
same,% reduction,[1]; [7],30%
same,His+ (revertant colonies),[1]; [7],496 ± 11
same,% reduction,[1]; [8],30.00^∗ %
same,% reduction,[1]; [9],16.03%
same,His+ (revertant colonies),[1]; [9],525 ± 32
same,% reduction,[1]; [10],19.08%
same,His+ (revertant colonies),[1]; [10],515 ± 64
same,% reduction,[1]; [11],29%
same,His+ (revertant colonies),[1]; [11],483 ± 91
same,% reduction,[1]; [12],29.01^∗ %
same,% reduction,[1]; [13],41.2%
same,His+ (revertant colonies),[1]; [13],443 ± 28
same,% reduction,[1]; [14],41.22^∗ %
same,% reduction,[2]; [4],19.29%
same,His+ (revertant colonies),[2]; [4],969 ± 54
same,% reduction,[2]; [5],25%
same,His+ (revertant colonies),[2]; [5],933 ± 38
same,% reduction,"[2]; +S9, CPA (150 μM), atorvastatin 100 μM, listed as Atorvastatin",25.00^∗ %
same,% reduction,[2]; [6],29%
same,His+ (revertant colonies),[2]; [6],905 ± 42
same,% reduction,"[2]; +S9, CPA (150 μM), atorvastatin 200 μM, listed as Atorvastatin",29.29^∗ %
same,% reduction,[2]; [7],41%
same,His+ (revertant colonies),[2]; [7],829 ± 11
same,% reduction,[2]; [8],41.43^∗ %
same,% reduction,[2]; [9],19.36%
same,His+ (revertant colonies),[2]; [9],801 ± 32
same,% reduction,[2]; [10],24.19%
same,His+ (revertant colonies),[2]; [10],776 ± 64
same,% reduction,[2]; [11],32.3%
same,His+ (revertant colonies),[2]; [11],736 ± 91
same,% reduction,[2]; [12],32.26^∗ %
same,% reduction,[2]; [13],55.7%
same,His+ (revertant colonies),[2]; [13],620 ± 28
same,% reduction,[2]; [14],55.65^∗ %
same,EC50,[3],274 ± 3 µM
